In patent US20090291923A1, “TRIOXANE DIMERS HAVING HIGH ANTICANCER AND LONG-LASTING ANTIMALARIAL ACTIVITIES” (priority 2005, published 2009):
Converted amounts (≈) assume the structure as drawn. Like-named read-outs stand apart in the source and are kept apart here.

Columns and labels:
[1] = system: chloroquine-sensitive Plasmodium falciparum (NF 54) parasites; experiment: in vitro antimalarial potency, standard assay; type: cell-based; conditions: for IC50: Plasmodium falciparum, read-out: IC50 (nM), Antimalarial Activities in vitro
[2] = system: normal ectocervical cells HCX (primary normal cervical cells); experiment: XTT cell viability assay, normal cervical cells; type: cell-based, human
Method: Primary human ectocervical keratinocytes were derived from fresh cervical tissue obtained from the Cooperative Human Tissue Network (CHTN) within 24 hours after removal from patients undergoing hysterectomies for benign non-cervical uterine diseases. Standard overnight dispase treatment and subsequent trypsinization procedures were used to isolate ectocervical epithelial cells, which were cultured in serum-free keratinocyte medium (KSFM) supplemented with bovine pituitary extract and epidermal growth factor according to the manufacturer's protocol (Invitrogen, Carlsbad, Calif.). […]
(§1) Cell viability was determined using 2.5×10^3 cells were plated in triplicates in 96 well tissue culture microplates in the appropriate culture medium and incubated for 24 hours in a humidified atmosphere at 37° C., 5% CO2. […] Cell viability (absorbance) was measured using an ELISA reader at 450 nm with a reference wavelength at 650 nm. Results were calculated as the percentage of cultures exposed to solvent control only. […]
as §1, with “2.5×10^3” for “Cell viability was determined using 2.5×10^3”

GFP strain P. berghei = experiment: in vivo antimalarial ED50 in mice, single administration SC or PO; conditions: for ED50: Plasmodium berghei, in Mus musculus; for overt toxicity / behavioral modification in the mice: single dose of 3, 10 or 30 mg/kg SC or PO
[3] = system: panel of 60 human cancer cell lines; experiment: NCI panel of 60 human cancer cell lines, growth inhibition; type: cell-based; conditions: nanomolar to micromolar concentrations
Excerpt: Cell growth was inhibited in a dose-dependent manner.

[4] = system: human cervical cancer cell line HeLa; experiment: XTT proliferation / cell viability assay, HeLa; type: cell-based; conditions: for IC50: Homo sapiens, XTT based assay, read-out: IC50, HeLa cells
[5] = solubility in aqueous pH 7.4 buffer; type: physicochemical; conditions: aqueous pH 7.4 buffer solution, pH 7.4, 25° C.
[6] = system: Plasmodium berghei infected mice; type: in vivo
[7] = system: malaria-infected mice (GFP strain P. berghei); experiment: oral in vivo antimalarial activity in malaria-infected mice, three doses over three days
[8] = chloroquine-sensitive P. falciparum NF 54, quadruplicates

Question: Which IC50 [1, 8] does the source give for `C[C@@H]1CC[C@H]2[C@@H](C)C(=O)O[C@@H]3O[C@]4(C)CC[C@@H]1[C@]32OO4` [Artemisinin, artemisinin, reference compound] here?
Answer: 6.6 ± 0.76 nM

Question: Which IC50 [1, 8] does the source give for `C=C(CC[C@H]1O[C@@H]2O[C@@]3(C)CC[C@H]4[C@H](C)CC[C@@H]([C@H]1C)[C@@]24OO3)C(=C)CC[C@H]1O[C@@H]2O[C@@]3(C)CC[C@H]4[C@H](C)CC[C@@H]([C@H]1C)[C@@]24OO3` [dimer 4] here?
Answer: 2.9 nM

Question: For `COC(=O)c1cc(CC[C@H]2O[C@@H]3O[C@@]4(C)CC[C@H]5[C@H](C)CC[C@@H]([C@H]2C)[C@@]35OO4)c(CC[C@H]2O[C@@H]3O[C@@]4(C)CC[C@H]5[C@H](C)CC[C@@H]([C@H]2C)[C@@]35OO4)cc1C(=O)OC` [dimer 5], which IC50 [1, 8] is on record?
Answer: 1.6 nM

Question: What about the “toxicity to primary normal cervical cells” value [2] of the same compound?
Answer: without being toxic

Question: What about the ED50 (GFP strain P. berghei; sc, read-out: SC ED50) of the same compound?
Answer: 0.71 mg/kg

Question: And the “overt toxicity / behavioral modification in the mice” value (GFP strain P. berghei)?
Answer: Neither over toxicity nor behavioral modification was observed

Question: And the “preliminary growth inhibitory activity, selectivity in the panel” value [3]?
Answer: extremely selective and highly potent at inhibiting the growth of only non-small cell lung carcinoma HOP-92 cells, melanoma SK-MEL-5 cells, and breast cancer BT-549 cells

Question: And the “times more potent than trioxane monomer DHA” value [4]?
Answer: 10-20 times

Question: And the IC50 [4]?
Answer: 500 nM

Question: For `C[C@H]1[C@@H](CCc2cc(C(=O)O)c(C(=O)O)cc2CC[C@H]2O[C@@H]3O[C@@]4(C)CC[C@H]5[C@H](C)CC[C@@H]([C@H]2C)[C@@]35OO4)O[C@@H]2O[C@@]3(C)CC[C@H]4[C@H](C)CC[C@@H]1[C@@]24OO3` [dimer 6], which IC50 [1, 8] is on record?
Answer: 360 nM

Question: What about the solubility [5] of the same compound?
Answer: ~14 mg/mL (≈ 18.5 mM)

Question: Which IC50 [1, 8] does the source give for `C[C@H]1[C@@H](CCc2cc(CO)c(CO)cc2CC[C@H]2O[C@@H]3O[C@@]4(C)CC[C@H]5[C@H](C)CC[C@@H]([C@H]2C)[C@@]35OO4)O[C@@H]2O[C@@]3(C)CC[C@H]4[C@H](C)CC[C@@H]1[C@@]24OO3` [dimer 7] here?
Answer: 0.77 nM

Question: And the “times more antimalarially active than artemisinin” value ([1]; in vitro, P. falciparum NF 54)?
Answer: approximately 10 times

Question: What about the “toxicity to primary normal cervical cells” value [2] of the same compound?
Answer: without being toxic

Question: What about the ED50 (GFP strain P. berghei; po, read-out: PO ED50) of the same compound?
Answer: 2.6 mg/kg

Question: And the ED50 (GFP strain P. berghei; sc, read-out: SC ED50)?
Answer: 0.06 mg/kg

Question: And the “times more efficacious than sodium artesunate administered PO” value (GFP strain P. berghei; mice, PO)?
Answer: approximately 1.5 times

Question: What about the “overt toxicity / behavioral modification in the mice” value (GFP strain P. berghei) of the same compound?
Answer: Neither over toxicity nor behavioral modification was observed

Question: And the “times more potent than trioxane monomer DHA” value [4]?
Answer: 110-220 times

Question: What about the IC50 [4] of the same compound?
Answer: 46.5 nM

Question: With `C[C@H]1[C@@H](CCc2cc3c(cc2CC[C@H]2O[C@@H]4O[C@@]5(C)CC[C@H]6[C@H](C)CC[C@@H]([C@H]2C)[C@@]46OO5)COP(=O)(Oc2ccccc2)OC3)O[C@@H]2O[C@@]3(C)CC[C@H]4[C@H](C)CC[C@@H]1[C@@]24OO3` (some centres unmarked) [dimer 9] as the compound, how does the IC50 [1] read?
Answer: 3.7 nM

Question: Which results are given for `C[C@H]1[C@H](OC(=O)CCC(=O)[O-])O[C@@H]2O[C@@]3(C)CC[C@H]4[C@H](C)CC[C@@H]1[C@@]24OO3.[Na+]` [sodium artesunate]?
Answer: PO ED50 (GFP strain P. berghei; mice, single administration, oral): 4.0 mg/kg; SC ED50 (GFP strain P. berghei; mice, single administration, subcutaneous): 2.2 mg/kg; life of the mice prolonged to ([6]; 30 mg/kg single dose, no drug 7 days): 14 days; malaria parasites killed ([6]; single dose 30 mg/kg, subcutaneous): similarly efficacious; Avg Mouse Survival (oral, 3 × 10 mg/kg) [7]: 6.7
